{
  "source": "patent US20080213250A1",
  "about": "“Use of Eph Receptor Inhibitors for the Treatment of Neurodegenerative Diseases” (priority 2004, published 2008)",
  "key": {"TAP-tagged Eph kinases [1]": {"tested_on": "TAP-tagged Eph kinases", "test": "Autophosphorylation of TAP-tagged Eph kinases in cells", "assay_type": "cell-based", "conditions": "in cells (FIG. 2)", "description": "Cells are plated in 6-well plates in growth medium (see above). To test potential modulators, preferably inhibitors, of Eph kinase tyrosine phosphorylation, cells are starved in serum-free medium for 4 h. Under these conditions, Eph-TAP kinase is partially constitutively phosphorylated-presumably through autophosphorylation that is commonly associated with over-expression of receptor tyrosine kinases. This feature is exploited to monitor the effect of Eph kinase modulators. Test compounds are diluted (from a stock in DMSO) in serum-free medium and added to cells for indicated times. Cells are chilled on ice and washed with ice-cold PBS. They are then lysed in 300 μl lysis buffer (50 mM Tris-HCl, 1% NP-40, 0.05% SDS, 100 mM NaCl, 1.5 mM MgCl2, 2 mM EDTA, 5% glycerol, pH 7.6) for 20 min at 4 °C and cleared by centrifugation at 16,100×g in a table-top centrifuge for 20 min.\nLysates are subsequently incubated with 20 μl pre-washed rabbit IgG beads (Sigma) for 2 h with constant agitation at 4° C. Beads are finally washed with 1 ml of lysis buffer and immobilized protein complexes are eluted by boiling in 40 μl SDS sample buffer.\nBlot membranes are probed with monoclonal antibody 4G10 (Upstate Biotechnology) or with HRP-coupled PAP antibody (see above)."}, "TAP-tagged Eph kinases [2]": {"tested_on": "TAP-tagged Eph kinases", "test": "Autophosphorylation of TAP-tagged Eph kinases in-vitro", "assay_type": "biochemical", "conditions": "data not shown"}, "EphA6": {"biological_target": "T1, EphA6 (Mus musculus, UniProt Q62413)", "T1 sequence (Q62413 23-1035)": "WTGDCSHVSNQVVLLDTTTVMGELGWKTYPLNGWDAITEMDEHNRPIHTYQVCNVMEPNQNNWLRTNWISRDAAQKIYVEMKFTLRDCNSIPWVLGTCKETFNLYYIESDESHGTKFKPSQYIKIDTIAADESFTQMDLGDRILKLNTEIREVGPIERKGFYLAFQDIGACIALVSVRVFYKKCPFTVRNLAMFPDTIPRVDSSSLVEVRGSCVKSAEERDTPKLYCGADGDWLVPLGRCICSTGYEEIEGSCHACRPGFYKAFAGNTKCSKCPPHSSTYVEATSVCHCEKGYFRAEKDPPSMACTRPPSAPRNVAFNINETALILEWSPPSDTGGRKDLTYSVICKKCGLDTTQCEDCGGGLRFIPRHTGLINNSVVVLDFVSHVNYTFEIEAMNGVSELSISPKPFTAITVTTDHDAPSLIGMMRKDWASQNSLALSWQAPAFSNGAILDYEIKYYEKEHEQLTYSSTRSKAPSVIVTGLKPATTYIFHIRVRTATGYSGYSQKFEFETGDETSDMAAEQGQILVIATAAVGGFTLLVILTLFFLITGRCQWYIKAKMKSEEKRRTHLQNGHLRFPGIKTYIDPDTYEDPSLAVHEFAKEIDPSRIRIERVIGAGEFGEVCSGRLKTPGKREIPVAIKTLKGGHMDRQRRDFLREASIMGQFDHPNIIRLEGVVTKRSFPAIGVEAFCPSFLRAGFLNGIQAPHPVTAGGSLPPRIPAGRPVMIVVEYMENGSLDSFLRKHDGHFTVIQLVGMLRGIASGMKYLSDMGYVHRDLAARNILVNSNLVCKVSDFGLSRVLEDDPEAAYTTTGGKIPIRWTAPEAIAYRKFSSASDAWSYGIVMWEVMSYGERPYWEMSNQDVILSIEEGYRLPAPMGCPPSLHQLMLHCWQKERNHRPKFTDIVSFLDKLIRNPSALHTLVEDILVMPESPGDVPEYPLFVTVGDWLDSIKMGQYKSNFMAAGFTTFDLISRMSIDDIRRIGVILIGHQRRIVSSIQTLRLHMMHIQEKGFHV", "test": "Chemical proteomics pull-down with immobilized compound, LC-MS/MS identification", "conditions": "maximum in any chemical proteomics experiment"}, "EphB1": {"biological_target": "T2, EphB1 (Mus musculus, UniProt Q8CBF3)", "T2 sequence (Q8CBF3 18-984)": "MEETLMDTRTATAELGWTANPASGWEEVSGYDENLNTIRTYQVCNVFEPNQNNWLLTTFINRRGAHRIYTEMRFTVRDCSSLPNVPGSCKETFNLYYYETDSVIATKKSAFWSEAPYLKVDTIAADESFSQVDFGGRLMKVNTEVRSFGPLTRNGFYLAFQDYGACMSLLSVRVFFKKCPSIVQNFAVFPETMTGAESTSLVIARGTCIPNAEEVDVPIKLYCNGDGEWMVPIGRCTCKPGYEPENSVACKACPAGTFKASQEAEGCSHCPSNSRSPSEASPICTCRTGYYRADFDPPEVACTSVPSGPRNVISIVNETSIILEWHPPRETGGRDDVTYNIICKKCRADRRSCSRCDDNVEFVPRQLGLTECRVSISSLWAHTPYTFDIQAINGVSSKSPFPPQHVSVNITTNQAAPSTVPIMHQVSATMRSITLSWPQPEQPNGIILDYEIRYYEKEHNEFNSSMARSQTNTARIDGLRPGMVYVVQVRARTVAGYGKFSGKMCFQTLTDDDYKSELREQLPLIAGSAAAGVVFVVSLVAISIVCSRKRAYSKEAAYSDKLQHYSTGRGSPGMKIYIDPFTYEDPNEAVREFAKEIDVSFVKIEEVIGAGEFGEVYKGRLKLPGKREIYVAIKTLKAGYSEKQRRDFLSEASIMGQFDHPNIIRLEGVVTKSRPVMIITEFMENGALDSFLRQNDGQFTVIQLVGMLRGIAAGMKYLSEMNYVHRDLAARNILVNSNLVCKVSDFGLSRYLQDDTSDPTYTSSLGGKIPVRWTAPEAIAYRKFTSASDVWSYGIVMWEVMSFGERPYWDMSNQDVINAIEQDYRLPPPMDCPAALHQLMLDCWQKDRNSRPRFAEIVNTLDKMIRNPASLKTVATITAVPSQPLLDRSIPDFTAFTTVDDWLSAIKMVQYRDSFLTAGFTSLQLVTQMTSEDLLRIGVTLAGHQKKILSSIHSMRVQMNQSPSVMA", "test": "Chemical proteomics pull-down with immobilized compound, LC-MS/MS identification", "conditions": "maximum in any chemical proteomics experiment"}},
  "data": [
    {"smiles": "CSc1cccc(Nc2ncc3cc(-c4c(Cl)cccc4Cl)c(=O)n(C)c3n2)c1", "note": "[PD173955]", "values": [
      {"measurement": "inhibition of autophosphorylation of TAP-tagged Eph kinases in cells", "setting": "TAP-tagged Eph kinases [1]", "value": "potent inhibitors"},
      {"measurement": "inhibition of autophosphorylation of TAP-tagged Eph kinases in-vitro", "setting": "TAP-tagged Eph kinases [2]", "value": "potent inhibitors"},
      {"measurement": "maximal number of non-redundant peptides identified, EphA6", "setting": "EphA6", "value": 7},
      {"measurement": "maximal number of non-redundant peptides identified, EphB1", "setting": "EphB1", "value": 5}
    ]}
  ]
}
